Measurements: ChEMBL document CHEMBL1201862, “PubChem BioAssay data set” (2004)
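A five-concentration, 48-hour dose response in 96-well plates underlies each endpoint, interpolated linearly between surrounding concentrations. GI50 marks 50% less growth.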 Active and inactive are the calls of the source. No stated cut-off is given here; in the data, active = GI50 up to about 1.1 µM and inactive = higher.

Assays:
Test in all cases: NCI-60 cell line screen, 48 h
SK-MEL-28 = test system: SK-MEL-28
RXF 393 = test system: RXF 393
OVCAR-4 = test system: OVCAR-4
HCT-116 = test system: HCT-116
K562 = test system: K562
MDA-MB-435 = test system: MDA-MB-435
OVCAR-3 = test system: OVCAR-3
T47D = test system: T47D
LOX IMVI = test system: LOX IMVI
M14 = test system: M14
KM12 = test system: KM12
HCC 2998 = test system: HCC 2998
Hs-578T = test system: Hs-578T
BT-549 = test system: BT-549
COLO 205 = test system: COLO 205
786-0 = test system: 786-0
EKVX = test system: EKVX
TK-10 = test system: TK-10
IGROV-1 = test system: IGROV-1
HOP-62 = test system: HOP-62

Measured: GI50

NC(=S)N/N=C(/C(=O)Nc1nc2ccc([N+](=O)[O-])cc2s1)C1C(=O)NC(=S)NC1=O
inactive: SK-MEL-28 > 100 µM | RXF 393 48.6 µM | OVCAR-4 23.7 µM | HCT-116 > 100 µM | K562 > 100 µM | MDA-MB-435 > 100 µM | OVCAR-3 > 100 µM | T47D 47.4 µM | LOX IMVI > 100 µM | M14 > 100 µM | KM12 > 100 µM | HCC 2998 56 µM | Hs-578T 27.7 µM | BT-549 70.1 µM | COLO 205 > 100 µM | 786-0 > 100 µM

Cc1cnc2c(c1)C(=O)N(c1ccc(Br)cc1)S2(=O)=O
inactive: EKVX 35.6 µM | SK-MEL-28 > 100 µM | OVCAR-4 44.4 µM | HCT-116 > 100 µM | MDA-MB-435 > 100 µM | OVCAR-3 > 100 µM | T47D > 100 µM | LOX IMVI > 100 µM | M14 > 100 µM | KM12 > 100 µM | TK-10 > 100 µM | IGROV-1 56.1 µM | HCC 2998 > 100 µM | HOP-62 50.5 µM | Hs-578T 24.5 µM | BT-549 > 100 µM | COLO 205 > 100 µM | 786-0 > 100 µM

CC(SC(=S)N(C)C)C(=O)Nc1nnc(-c2ccc(Cl)cc2)o1 (stereo not drawn)
inactive: SK-MEL-28 53 µM | RXF 393 80.7 µM | OVCAR-4 44.7 µM | HCT-116 28.8 µM | K562 14.3 µM | MDA-MB-435 35.2 µM | OVCAR-3 19.6 µM | T47D 44.8 µM | LOX IMVI 16.9 µM | M14 37.1 µM | TK-10 80.2 µM | IGROV-1 30.2 µM | HCC 2998 > 100 µM | HOP-62 51.2 µM | Hs-578T > 100 µM | BT-549 89.1 µM | COLO 205 33.3 µM | 786-0 20.8 µM

CCOP(=O)(OCC)C(F)(F)c1ccc(CC(NC(=O)OC(C)(C)C)C(=O)O)cc1 (stereo not drawn)
inactive: EKVX > 10 µM | SK-MEL-28 > 10 µM | OVCAR-4 > 10 µM | HCT-116 > 10 µM | K562 > 10 µM | MDA-MB-435 > 10 µM | OVCAR-3 > 10 µM | T47D > 10 µM | LOX IMVI > 10 µM | M14 > 10 µM | KM12 > 10 µM | TK-10 > 10 µM | IGROV-1 > 10 µM | HCC 2998 > 10 µM | HOP-62 5.15 µM | Hs-578T > 10 µM | BT-549 > 10 µM | COLO 205 > 10 µM | 786-0 > 10 µM

CC1(C)[C@H]2CC[C@](C)(C2)[C@]1(S)Cc1ccccn1
inactive: EKVX 46.5 µM | SK-MEL-28 > 100 µM | RXF 393 26.7 µM | HCT-116 32.8 µM | K562 26.3 µM | MDA-MB-435 26.3 µM | OVCAR-3 21.7 µM | T47D 24.5 µM | LOX IMVI 17.3 µM | M14 84.1 µM | KM12 42.9 µM | TK-10 32.4 µM | IGROV-1 30.8 µM | HCC 2998 18.5 µM | HOP-62 29.6 µM | Hs-578T 57.8 µM | BT-549 90.4 µM | COLO 205 34.3 µM | 786-0 27 µM

O=[N+]([O-])c1cccc2nnccc12
inactive: EKVX 36.5 µM | RXF 393 63.5 µM | HCT-116 12.1 µM | K562 23.9 µM | MDA-MB-435 15.7 µM | T47D 36.8 µM | M14 24.3 µM | KM12 23.7 µM | TK-10 46.3 µM | IGROV-1 24.7 µM | Hs-578T 51.5 µM | BT-549 29.6 µM | COLO 205 13.3 µM | 786-0 12.6 µM

C=CC1(C)CCC2C(=CCC3C2(C)CC(O)C(O)C3(C)COC2OC(CO)C(O)C(O)C2O)C1 (stereo not drawn)
inactive: EKVX > 100 µM | SK-MEL-28 > 100 µM | OVCAR-4 > 100 µM | HCT-116 > 100 µM | K562 > 100 µM | MDA-MB-435 > 100 µM | T47D > 100 µM | LOX IMVI > 100 µM | M14 > 100 µM | KM12 > 100 µM | TK-10 > 100 µM | IGROV-1 > 100 µM | HCC 2998 > 100 µM | Hs-578T > 100 µM | BT-549 > 100 µM | COLO 205 > 100 µM | 786-0 > 100 µM

COc1ccc(C(=O)/C=C/c2ccc(OCC#N)cc2)cc1OC
inactive: EKVX 14.9 µM | SK-MEL-28 14.6 µM | RXF 393 13.2 µM | OVCAR-4 40.7 µM | HCT-116 5.09 µM | K562 5.52 µM | MDA-MB-435 17.5 µM | OVCAR-3 21.2 µM | T47D 5.79 µM | M14 16.4 µM | KM12 5.33 µM | TK-10 26.9 µM | IGROV-1 30.5 µM | HCC 2998 18.2 µM | HOP-62 15.5 µM | Hs-578T 27.4 µM | BT-549 15.5 µM | COLO 205 11.9 µM | 786-0 19.9 µM

O=C1Nc2ccccc2/C1=N/N=C1NCCCCN1
inactive: EKVX > 100 µM | OVCAR-4 > 100 µM | HCT-116 > 100 µM | K562 > 100 µM | MDA-MB-435 > 100 µM | OVCAR-3 > 100 µM | T47D 57.8 µM | LOX IMVI > 100 µM | M14 > 100 µM | KM12 > 100 µM | TK-10 > 100 µM | IGROV-1 > 100 µM | HCC 2998 > 100 µM | HOP-62 > 100 µM | Hs-578T > 100 µM | BT-549 > 100 µM | COLO 205 > 100 µM | 786-0 > 100 µM

O=C1NC(=O)C(C(c2ccc([N+](=O)[O-])cc2)C2C(=O)NC(=O)NC2=O)C(=O)N1
inactive: SK-MEL-28 > 100 µM | RXF 393 > 100 µM | OVCAR-4 > 100 µM | HCT-116 > 100 µM | K562 > 100 µM | MDA-MB-435 > 100 µM | OVCAR-3 > 100 µM | T47D > 100 µM | LOX IMVI > 100 µM | M14 > 100 µM | KM12 > 100 µM | TK-10 > 100 µM | IGROV-1 > 100 µM | HOP-62 > 100 µM | Hs-578T > 100 µM | BT-549 > 100 µM | COLO 205 > 100 µM | 786-0 > 100 µM

Nc1ccc(C2SCC(=O)N2NS(=O)(=O)c2cccc(C(=O)O)c2)cc1 (stereo not drawn)
inactive: EKVX > 100 µM | SK-MEL-28 > 100 µM | RXF 393 > 100 µM | HCT-116 > 100 µM | K562 > 100 µM | MDA-MB-435 > 100 µM | OVCAR-3 > 100 µM | T47D 58.3 µM | LOX IMVI > 100 µM | M14 > 100 µM | KM12 > 100 µM | TK-10 > 100 µM | IGROV-1 > 100 µM | HCC 2998 > 100 µM | HOP-62 > 100 µM | Hs-578T > 100 µM | BT-549 > 100 µM | COLO 205 > 100 µM | 786-0 > 100 µM

COc1ccc2c(c1)CCC1=C/C(=N\NC(N)=O)CCC12C (stereo not drawn)
inactive: SK-MEL-28 > 10 µM | OVCAR-4 > 10 µM | HCT-116 > 10 µM | K562 > 10 µM | MDA-MB-435 5.24 µM | OVCAR-3 > 10 µM | T47D > 10 µM | LOX IMVI > 10 µM | M14 > 10 µM | KM12 > 10 µM | TK-10 > 10 µM | IGROV-1 > 10 µM | HCC 2998 > 10 µM | HOP-62 > 10 µM | Hs-578T 7.1 µM | BT-549 > 10 µM | COLO 205 > 10 µM | 786-0 > 10 µM

CCSC1=N/C(=C\c2ccco2)C(NN)=N1
inactive: EKVX > 50 µM | SK-MEL-28 > 50 µM | RXF 393 > 50 µM | HCT-116 > 50 µM | K562 > 50 µM | MDA-MB-435 > 50 µM | OVCAR-3 > 50 µM | T47D > 50 µM | LOX IMVI > 50 µM | M14 > 50 µM | KM12 > 50 µM | TK-10 > 50 µM | IGROV-1 > 50 µM | HOP-62 > 50 µM | Hs-578T > 50 µM | BT-549 > 50 µM | COLO 205 > 50 µM | 786-0 > 50 µM

CC1=C(C)C(=O)C(C2=CC(=O)C=CC2=O)=C(C2=CC(=O)C=CC2=O)C1=O
inactive: EKVX > 54.1 µM | SK-MEL-28 > 74 µM | RXF 393 41.9 µM | OVCAR-4 20.6 µM | HCT-116 31.8 µM | MDA-MB-435 27.9 µM | T47D 26.4 µM | LOX IMVI 26.7 µM | M14 > 76.9 µM | KM12 64.4 µM | TK-10 > 100 µM | IGROV-1 21.4 µM | HCC 2998 > 100 µM | HOP-62 > 100 µM | Hs-578T 45.4 µM | BT-549 86.9 µM | COLO 205 56 µM | 786-0 76.7 µM

C=C(C)[C@@H]1CCC2=C(CC[C@]3(C)[C@@H]([C@@H](CCC=C(C)C)C(=O)O)[C@H](O)C[C@@]23C)[C@@]1(C)CCC(=O)O [PORICOIC ACID G]
inactive: EKVX 44.6 µM | SK-MEL-28 66.8 µM | RXF 393 41.4 µM | OVCAR-4 > 100 µM | HCT-116 54.1 µM | K562 53.2 µM | MDA-MB-435 > 100 µM | OVCAR-3 > 100 µM | T47D > 100 µM | LOX IMVI 61.2 µM | M14 99.8 µM | KM12 47.4 µM | TK-10 > 100 µM | IGROV-1 42.6 µM | HOP-62 53.2 µM | Hs-578T > 100 µM | BT-549 71.9 µM | COLO 205 52.8 µM | 786-0 85.9 µM
